We go through two compounds from US10105446B2, “Pharmaceutical compositions for high-capacity targeted delivery” (Wake Forest University Health Sciences, priority 2013, dated 2018).

The conditions of data set [1]: cited from earlier work.
The subject of the next data set is C4-2 cells. Put plainly: Cytotoxicity, CellTiter-Glo cell viability assay, C4-2 cells. The data set is classed as cell-based. As for the experimental part:
(§1) PC3, C4-2, and C4-2Luc cells were seeded at a density of 3,000 cells/well in 96-well plates and incubated at 37° C. under 5% CO2. Next day, the cells were treated with Dox, DAC+Dox, or DAC-D for 24 h. Next day the treatment was removed, cells were washed once with warm fresh media and incubated for another 48 h in fresh media. Cell counts were measured indirectly by measuring the ATP amounts using CellTiter-Glo® luminescent cell viability assay (Promega, Madison, Wis.) according to the manufacturer's protocol. In co-culture experiments, PC3 and C4-2Luc cells were each seeded at a density of 1,500 cells/well in 96-well plates. Co-cultured cells were treated with Dox, DAC+Dox, or DAC-D and cell viability was also measured using the CellTiter-Glo® assay. Luciferase levels were measured for co-cultures of PC3 and C4-2Luc cells using a luciferase reporter assay system (Promega). PC3 and C4-2Luc cells were seeded and treated as described above and the cells were lysed and luciferase activity was measured according to the manufacturer's protocol.

The next data set deals with PSMA-null PC3 cells. As to the kind of experiment: Uptake/internalization by confocal microscopy and flow cytometry, PSMA-null PC3 cells. Format: cell-based. As to conditions: 1 μM, 2 h, confocal microscopy. As for the experimental part:
(§2) Cells were seeded at 20,000 cells/well in 8-well Lab-Tek® II chambered #1.5 German coverglass system (Thermo Fisher Sci., Waltham, Mass.), and incubated at 37° C. under 5% CO2 for 2 days. Cells were incubated with 1 μM of DAC in which the dA16 aptamer was labeled with Quasar 570 at the 5′-terminus and the T16 aptamer was labeled with Quasar 670 dyes in RPMI with 10% FBS for 2 h at 37° C. Cells were washed with fresh media and DPBS, followed by a 5 min fixation with 3.7% formaldehyde in DPBS. Cells were visualized using a Zeiss LSM510 confocal microscope (Carl Zeiss, Oberkochen, Germany). Cells were also incubated with 1 μM of DAC-D (or the non-covalent DAC+D), for 2 h. DAC were only labeled with Quasar 670 for these studies as the Quasar 570 emission would interfere with the Dox emission. Cells were washed, fixed, and imaged using identical procedures.
(§3) PC3 and C4-2 cells were incubated with 1 μM of DAC for 2 h at 37° C. Dimers were fluorescently labeled with either Quasar 570 or 670 alone, or both. Cells were trypsinized and washed with PBS twice. Cells re-suspended in PBS were analyzed to measure their intracellular fluorescence using the Accuri™ C6 flow cytometer (BD Biosciences).

A further data set deals with PSMA+ C4-2 cells. As to the kind of experiment: Uptake/internalization by confocal microscopy and flow cytometry, PSMA+ C4-2 cells. Format: cell-based. On the procedure:
as §2, §3

For a further data set, the system named is PC3 cells. Put plainly: Cytotoxicity, CellTiter-Glo cell viability assay, PC3 cells. Format: cell-based. As for the experimental part: as §1
Data set [2] in a line: Determination of Dox:DNA ratios by absorbance. The data set is classed as physicochemical. As for the experimental part:
DNA Ratios: DNA samples were prepared in dH2O, and absorbencies were measured from 200-800 nm using a Beckman Coulter DU800 spectrophotometer. A standard curve of Dox was established between 1 μM and 10 μM by using absorbencies at 494 nm at 85° C. To assess the amount of Dox covalently bound to DNA, the samples were heated to 85° C. before measuring the absorbance at 494 nm and 260 nm. The 260 nm wavelength was used to determine the DNA content in the sample and to determine the Dox:DNA ratio.

Data set [3] in a line: Temperature-dependent UV melting (thermal stability of dimeric aptamer complexes). Format: physicochemical. As to conditions: UV absorbance at 260 nm, heating 0.7° C./min. On the procedure: Temperature-dependent UV absorption spectra were obtained using a Beckman Coulter DU-800 UV-Vis spectrophotometer. Samples of DAC, DAC-D, and DAC+D were prepared. The temperature was increased at a rate of 0.7° C./min over the range 20-85° C. and absorbance at 260 nm was measured for each sample, (400 μL, 1 μM) concentration.

With `COc1cccc2c1C(=O)c1c(O)c3c(c(O)c1C2=O)C[C@@](O)(C(=O)CO)C[C@@H]3O[C@H]1C[C@H](N)[C@H](O)[C@H](C)O1` [Dox, doxorubicin], the “pKa of the doxorubicin amino group” value in data set [1] is reported as 8.2. Moreover, the reduction in viability in the data set on C4-2 cells (2 μM Dox, 24 h treatment + 48 h growth, cell line not specified in the sentence (PC3 and C4-2)) was roughly 90%. For the same compound, the “cytotoxicity (in words)” value with C4-2 cells (C4-2 cells) and with PC3 cells was “highly cytotoxic” in each case. Further, the “Dox internalization / nuclear accumulation” value is “readily accumulated” in the data set with PSMA-null PC3 cells (PC3 cells) and “readily accumulated” with PSMA+ C4-2 cells (1 μM, 2 h, confocal microscopy, C4-2 cells).

For “DAC: Dimer of PSMA DNA aptamer SZTI01 annealed through dCGGCA16GCCG / dCGGCT16GCCG tails (SEQ ID NO:5, 6) (chain 1 CGGCAAAAAAAAAAAAAAAAGCCG; chain 2 CGGCTTTTTTTTTTTTTTTTGCCG; DNA, backbone and methylation of C not given here; tails of DNA aptamer dimer, further chemistry not fully specified)”, the “uptake of fluorescently-labeled aptamer” value in the data set with PSMA-null PC3 cells (Quasar 570/670 labels) was “minimal uptake”; in the data set with PSMA+ C4-2 cells (1 μM, 2 h, Quasar 570/670 labels, confocal microscopy) it was “strong signal”. The “calc ratio (Dox bound per DAC)” value in data set [2] (Dox:DAC ratio 16x) is given as 10.8; in data set [2] (Dox:DAC ratio 24x), 14.18; in data set [2] (Dox:DAC ratio 32x) it was 13.7156. Further, the “molar equivalents of doxorubicin that can be covalently bound to each DAC” value in data set [2] (titration) turned out to be 14 molar equivalents. This compound returned a dissociation temperature in data set [3] of roughly 58 °C. Moreover, in the data set with PSMA+ C4-2 cells (C4-2 cells pre-incubated with J591), the “uptake after pre-incubation with J591 PSMA-specific monoclonal antibody” value is recorded as “attenuated”.
